Where two headings read alike, the source gives them in different places.
What was measured:
[1] = system: Echinochloa caudate; experiment: Post-emergence foliage spray, pot culture, fresh weight inhibition (Tables 1-48, 51-98, 101-148; 24 days); format: in vivo
Experimental: (§1) The above weeds were cultivated by a pot culture method. […] Full and uniform weed seeds were selected, soaked in warm water at 25° C. for 6 hours, and germinated in a 28° C. biochemical incubator (darkness). The weed seeds that had just germinatedwere evenly placed on the surface of the soil and then covered with 0.5-1 cm soil according to the sizes of seeds.
(§2) The technical materials were all dissolved in acetone, and diluted with an aqueous solution containing 0.1% emulsifier Tween-80. The dilution is performed as required.
(§3) A ratio of the active ingredient A to the active ingredient B and amounts thereof in each group depends on the characteristics and toxicity of the two agents, as well as the main application purpose of a corresponding formulation. Based on the pre-tests in this study, the dosage of the active ingredient A and B applied alone and in combination were shown in the tables. Water containing the solvent and emulsifier same with the above groups but free of the agents was used as a blank control.
(§4) In the stage of weeds with 3˜4 leaves, the weeds were thinned out to maintain 15 weeds per pot and 45 weeds for each treatment, then continued to be cultured to 5˜6 leaves stage of grassy weeds, 6˜7 leaves stage of broadleaf weeds, and treated.
(§5) The well-cultured weeds were evenly placed on a platform with an area of 0.5 m^2, and a solution of agents was sprayed on the stems and leaves thereof by the 3WP-2000-type walking spray tower at a dosage of 450 kg/ha and at a spray pressure of 0.3 MPa. After all the solution was sprayed, the valve was closed. After 30 seconds, the door of the spray tower was opened, and the nutritional bowl was taken out. Then the valve was opened, and the spray tube was cleaned by spraying 50 ml of water.
(§6) A pot-culture method was employed. For the cultivation of weeds, please refer to the Section 1.1), and “Pesticide guidelines for laboratory bioactivity tests—herbicides”. As to a method for applying agents, please refer to the section 2.3.2), that is, a foliage treatment was employed. After the treatment, the weeds were routinely cultured in a greenhouse.
(§7) A method for investigating absolute number was employed, wherein whole seedlings of survival weeds were cut off with a blade along the soil surface, and the fresh weight of the weeds was weighed with an analytical balance. For dead weeds, the fresh weight thereof was zero.
(§8) Wherein, in the formula, X represented the fresh weight inhibition rate of the active ingredient A in a dosage of P, and Y represented the fresh weight inhibition rate of the active ingredient B in a dosage of Q.

[2] = system: Echinochloa oryzoides; experiment: as above; format: in vivo
Experimental: as §1, §2, §3, §4, §5, §6, §7, §8

[3] = Echinochloa, 576 h, read-out: Control effect (%) of B applied alone in corresponding dose
[4] = Echinochloa oryzoides, 576 h, read-out: Control effect (%) of B applied alone in corresponding dose

## CCCCOC(=O)[C@@H](C)Oc1ccc(Oc2ccc(C(F)(F)F)cn2)cc1 [fluazifop-P-butyl]
[1]; fluazifop-P-butyl 3.75 g a.i./ha
  Control effect (%) of B applied alone in corresponding dose: 4.2%
[1]; fluazifop-P-butyl 7.5 g a.i./ha
  Control effect (%) of B applied alone in corresponding dose: 13.9%
[1]; fluazifop-P-butyl 15 g a.i./ha
  Control effect (%) of B applied alone in corresponding dose: 38.4%
[1]; fluazifop-P-butyl 30 g a.i./ha
  Control effect (%) of B applied alone in corresponding dose: 74.1%
[2]; B 3.75 g a.i./ha
  Control effect (%) of B applied alone in corresponding dose: 5.5%
[2]; B 7.5 g a.i./ha
  Control effect (%) of B applied alone in corresponding dose: 14.2%
[2]; B 15 g a.i./ha
  Control effect (%) of B applied alone in corresponding dose: 32.9%
[2]; B 30 g a.i./ha
  Control effect (%) of B applied alone in corresponding dose: 71.5%

## COC(=O)[C@@H](C)Oc1ccc(Oc2ncc(C(F)(F)F)cc2Cl)cc1 [haloxyfop-P-methyl]
[1]; haloxyfop-P-methyl 3.75 g a.i./ha
  Control effect (%) of B applied alone in corresponding dose: 3.0%
[1]; haloxyfop-P-methyl 7.5 g a.i./ha
  Control effect (%) of B applied alone in corresponding dose: 15.6%
[1]; haloxyfop-P-methyl 15 g a.i./ha
  Control effect (%) of B applied alone in corresponding dose: 40.2%
[1]; haloxyfop-P-methyl 30 g a.i./ha
  Control effect (%) of B applied alone in corresponding dose: 73.4%
[2]; B 3.75 g a.i./ha
  Control effect (%) of B applied alone in corresponding dose: 7.9%
[2]; B 7.5 g a.i./ha
  Control effect (%) of B applied alone in corresponding dose: 19.0%
[2]; B 15 g a.i./ha
  Control effect (%) of B applied alone in corresponding dose: 30.4%
[2]; B 30 g a.i./ha
  Control effect (%) of B applied alone in corresponding dose: 66.9%

## CS(=O)(=O)c1cc(C(F)(F)F)ccc1C(=O)c1cnoc1C1CC1 [isoxaflutole]
[1]; Echinochloa, 576 h, Table 85, 7.5 g a.i./ha, read-out: Control effect (%) of B applied alone in corresponding dose
  pest or weed control at 7.5 g/ha: 2.1%
[1]; Echinochloa, 576 h, Table 85, 15 g a.i./ha, read-out: Control effect (%) of B applied alone in corresponding dose
  pest or weed control at 15 g/ha: 14.3%
[1]; Echinochloa, 576 h, Table 85, 30 g a.i./ha, read-out: Control effect (%) of B applied alone in corresponding dose
  pest or weed control at 30 g/ha: 47.9%
[1]; Echinochloa, 576 h, Table 85, 60 g a.i./ha, read-out: Control effect (%) of B applied alone in corresponding dose
  pest or weed control at 60 g/ha: 63.6%
[2]; Echinochloa oryzoides, 576 h, B 7.5 g a.i./ha, read-out: Control effect (%) of B applied alone in corresponding dose
  pest or weed control at 7.5 g/ha: 8.1%
[2]; Echinochloa oryzoides, 576 h, B 15 g a.i./ha, read-out: Control effect (%) of B applied alone in corresponding dose
  pest or weed control at 15 g/ha: 19.6%
[2]; Echinochloa oryzoides, 576 h, B 30 g a.i./ha, read-out: Control effect (%) of B applied alone in corresponding dose
  pest or weed control at 30 g/ha: 50.6%
[2]; Echinochloa oryzoides, 576 h, B 60 g a.i./ha, read-out: Control effect (%) of B applied alone in corresponding dose
  pest or weed control at 60 g/ha: 65.5%

## CCC(=O)Nc1ccc(Cl)c(Cl)c1 [propanil]
[1]; Echinochloa, 576 h, propanil 75 g a.i./ha, read-out: Control effect (%) of B applied alone in corresponding dose
  pest or weed control at 75 g/ha: 3.8%
[1]; Echinochloa, 576 h, propanil 150 g a.i./ha, read-out: Control effect (%) of B applied alone in corresponding dose
  pest or weed control at 150 g/ha: 21.1%
[1]; Echinochloa, 576 h, propanil 300 g a.i./ha, read-out: Control effect (%) of B applied alone in corresponding dose
  pest or weed control at 300 g/ha: 36.4%
[1]; Echinochloa, 576 h, propanil 600 g a.i./ha, read-out: Control effect (%) of B applied alone in corresponding dose
  pest or weed control at 600 g/ha: 52.5%
[2]; Echinochloa oryzoides, 576 h, B 75 g a.i./ha, read-out: Control effect (%) of B applied alone in corresponding dose
  pest or weed control at 75 g/ha: 7.6%
[2]; Echinochloa oryzoides, 576 h, B 150 g a.i./ha, read-out: Control effect (%) of B applied alone in corresponding dose
  pest or weed control at 150 g/ha: 19.9%
[2]; Echinochloa oryzoides, 576 h, B 300 g a.i./ha, read-out: Control effect (%) of B applied alone in corresponding dose
  pest or weed control at 300 g/ha: 37%
[2]; Echinochloa oryzoides, 576 h, B 600 g a.i./ha, read-out: Control effect (%) of B applied alone in corresponding dose
  pest or weed control at 600 g/ha: 53.9%

## COC(=O)[C@@H](C)Oc1ccc(Oc2cnc3cc(Cl)ccc3n2)cc1 [quizalofop-P-methyl]
[1]; quizalofop-P-methyl 3.75 g a.i./ha
  Control effect (%) of B applied alone in corresponding dose: 3.4%
[1]; quizalofop-P-methyl 7.5 g a.i./ha
  Control effect (%) of B applied alone in corresponding dose: 12.2%
[1]; quizalofop-P-methyl 15 g a.i./ha
  Control effect (%) of B applied alone in corresponding dose: 40.8%
[1]; quizalofop-P-methyl 30 g a.i./ha
  Control effect (%) of B applied alone in corresponding dose: 72.1%
[2]; B 3.75 g a.i./ha
  Control effect (%) of B applied alone in corresponding dose: 5.9%
[2]; B 7.5 g a.i./ha
  Control effect (%) of B applied alone in corresponding dose: 14.6%
[2]; B 15 g a.i./ha
  Control effect (%) of B applied alone in corresponding dose: 38.6%
[2]; B 30 g a.i./ha
  Control effect (%) of B applied alone in corresponding dose: 63.3%

## CCC/C(=N\OCC)C1=C(O)CC(CC(C)SCC)CC1=O (centres unmarked) [sethoxydim]
[1]; [3]
  pest or weed control at 15 g/ha: 5.1%
  pest or weed control at 30 g/ha: 21.5%
  pest or weed control at 60 g/ha: 42.6%
  pest or weed control at 120 g/ha: 61.6%
[2]; [4]
  pest or weed control at 15 g/ha: 5.5%
  pest or weed control at 30 g/ha: 13.8%
  pest or weed control at 60 g/ha: 35.4%
  pest or weed control at 120 g/ha: 68.4%

## COC(=O)c1ccccc1S(=O)(=O)NC(=O)Nc1nc(C)cc(C)n1 [sulfometuron-methyl]
[1]; [3]
  pest or weed control at 9.375 g/ha: 3.8%
  pest or weed control at 18.75 g/ha: 13.9%
  pest or weed control at 37.5 g/ha: 24.6%
  pest or weed control at 75 g/ha: 52.7%
[2]; [4]
  pest or weed control at 9.375 g/ha: 3.2%
  pest or weed control at 18.75 g/ha: 12.6%
  pest or weed control at 37.5 g/ha: 38%
  pest or weed control at 75 g/ha: 53.8%

Reference: patent US20220264878A1, “HERBICIDAL COMPOSITION CONTAINING R-TYPE PYRIDYLOXY CARBOXYLIC ACID DERIVATIVE AND USE THEREOF” (Qingdao Kingagroot Chemical Compound Co., Ltd., priority 2019, published 2022)
